Measurements reported in US5328902A, “7-(substituted)-9-[(substituted glycyl)amido]-6-demethyl-6-deoxytetracyclines” (American Cyanamid Co., priority 1992, dated 1994).

Columns and labels:
Type in all cases: cell-based
E. coli UBMS 88-1 Tet B = assay: microbe, parasite or virus in culture; conditions: E. coli UBMS 88-1 Tet B; 18 hours at 35° C.
E. coli J3272 Tet sens. = assay: MIC, agar dilution
E. coli PRP1 Tet A = assay: microbe, parasite or virus in culture; conditions: E. coli PRP1 Tet A
[1] = tested on: E. coli MC 4100 TNIOC Tet B; assay: microbe, parasite or virus in culture; conditions: E. coli MC 4100 TNIOC Tet B
E. coli J3272 Tet C = assay: microbe, parasite or virus in culture; conditions: E. coli J3272 Tet C
E. coli UBMS 89-1 Tet M = assay: microbe, parasite or virus in culture; conditions: E. coli UBMS 89-1 Tet M
[2] = tested on: E. coli UBMS 89-2 Tet sens.; assay: MIC, agar dilution; conditions: E. coli UBMS 89-2 Tet sens.
E. coli J2175 = assay: MIC, agar dilution; conditions: E. coli J2175
E. coli BAJ9003 IMP MUT = assay: microbe, parasite or virus in culture; conditions: E. coli BAJ9003 IMP MUT
E. coli UBMS 90-5 = assay: MIC, agar dilution
E. coli #311 (MP) = assay: MIC, agar dilution; conditions: E. coli #311 (MP)
E. coli ATCC 25922 = assay: MIC, agar dilution; conditions: E. coli ATCC 25922
E. coli J3272 Tet D = assay: microbe, parasite or virus in culture; conditions: E. coli J3272 Tet D
S. mariescens FPOR 8733 = assay: MIC, agar dilution
[3] = tested on: Ps. acruginosa ATCC 27853; assay: MIC, agar dilution; conditions: Ps. acruginosa ATCC 27853
S. aureus NEMC 8769 = assay: MIC, agar dilution; conditions: S. aureus NEMC 8769
S. aureus UBMS 88-4 = assay: MIC, agar dilution; conditions: S. aureus UBMS 88-4
[4] = tested on: S. aureus UBMS 88-5 Tet M; assay: microbe, parasite or virus in culture; conditions: S. aureus UBMS 88-5 Tet M
[5] = tested on: S. aureus UBMS 88-7 Tet K; assay: microbe, parasite or virus in culture; conditions: S. aureus UBMS 88-7 Tet K
[6] = tested on: S. aureus UBMS 90-1 Tet M; assay: microbe, parasite or virus in culture; conditions: S. aureus UBMS 90-1 Tet M
S. aureus UBMS 90-3 = assay: MIC, agar dilution; conditions: S. aureus UBMS 90-3
[7] = tested on: S. aureus UBMS 90-2 Tet M; assay: microbe, parasite or virus in culture; conditions: S. aureus UBMS 90-2 Tet M
S. aureus IVES 2943 = assay: MIC, agar dilution; conditions: S. aureus IVES 2943
S. aureus ROSE (MP) = assay: MIC, agar dilution; conditions: S. aureus ROSE (MP)
S. aureus SMITH (MP) = assay: MIC, agar dilution; conditions: S. aureus SMITH (MP)
S. aureus IVES 1 983 = assay: MIC, agar dilution; conditions: S. aureus IVES 1 983
S. aureus ATCC 29213 = assay: MIC, agar dilution; conditions: S. aureus ATCC 29213
[8] = tested on: S. hemolyticus AVHAH 88-3; assay: MIC, agar dilution; conditions: S. hemolyticus AVHAH 88-3
E. faecalis ATCC 29212 = assay: MIC, agar dilution; conditions: E. faecalis ATCC 29212
[9] = tested on: E. coli MC 4100 Tet sens.; assay: MIC, agar dilution
[10] = tested on: tetracycline sensitive and resistant Gram-positive and Gram-negative bacteria; assay: In vitro antibacterial activity, summary in words of Table I
Enterococcus 12201 = assay: MIC, agar dilution; conditions: Enterococcus 12201
E. coli UBMS 90-4 Tet M = assay: microbe, parasite or virus in culture; conditions: E. coli UBMS 90-4 Tet M

| Compound | MIC (E. coli UBMS 88-1 Tet B) | MIC (E. coli J3272 Tet sens.) | MIC (E. coli PRP1 Tet A) | MIC [1] | MIC (E. coli J3272 Tet C) | MIC (E. coli UBMS 89-1 Tet M) | MIC [2] | MIC (E. coli J2175) | MIC (E. coli UBMS 90-5) | MIC (E. coli #311 (MP)) | MIC (E. coli ATCC 25922) | MIC (E. coli J3272 Tet D) | MIC (S. mariescens FPOR 8733) | MIC [3] | MIC (S. aureus NEMC 8769) | MIC (S. aureus UBMS 88-4) | MIC [6] | MIC (S. aureus UBMS 90-3) | MIC (S. aureus IVES 1 983) | MIC (S. aureus ATCC 29213) | also measured |
| --- | --- | --- | --- | --- | --- | --- | --- | --- | --- | --- | --- | --- | --- | --- | --- | --- | --- | --- | --- | --- | --- |
| CN(C)c1cc(NC(=O)C2CCCN2C(=O)C(F)(F)F)c(O)c2c1CC1CC3[C@H](N(C)C)C(O)=C(C(N)=O)C(=O)[C@@]3(O)C(O)=C1C2=O.Cl.Cl (stereo partly drawn) [A, [7S-(7alpha,10aalpha)]-N-[9-(Aminocarbonyl)4,7-bis(dimethylamino)-5,5a,6,6a,7,10,10a, 12-octahydro-l,8,10a,ll-tetrahydroxy-10,12-dioxo-2-naphthacenyl]-l-(trifluoroacetyl)-2-pyrrolidinecarboxamide dihydrochloride] | 8 µg/mL | 8 µg/mL | > 32 µg/mL | 8 µg/mL | 8 µg/mL | 8 µg/mL | 8 µg/mL | 8 µg/mL | 4 µg/mL | 8 µg/mL | 8 µg/mL | 2 µg/mL | > 32 µg/mL | > 32 µg/mL | 1 µg/mL | 4 µg/mL | 8 µg/mL | 1 µg/mL | 16 µg/mL | 4 µg/mL | MIC (E. coli BAJ9003 IMP MUT): 1 µg/mL; MIC [4]: 4 µg/mL; MIC [5]: 16 µg/mL; MIC [7]: 2 µg/mL; MIC (S. aureus IVES 2943): 16 µg/mL; MIC (S. aureus ROSE (MP)): 32 µg/mL; MIC (S. aureus SMITH (MP)): 2 µg/mL; MIC [8]: 8 µg/mL; MIC (E. faecalis ATCC 29212): 2 µg/mL |
| CN(C)c1cc(NC(=O)CNCC2CC2)c(O)c2c1CC1CC3C(N(C)C)C(O)=C(C(N)=O)C(=O)C3(O)C(O)=C1C2=O.Cl.Cl (centres unmarked) [K] | 0.5 µg/mL |  | 4 µg/mL |  |  | 0.5 µg/mL | 0.5 µg/mL |  |  |  |  | 0.25 µg/mL | 8 µg/mL | 16 µg/mL | 1 µg/mL | 0.5 µg/mL | 1 µg/mL | 0.5 µg/mL | 8 µg/mL | 1 µg/mL | MIC [9]: 0.12 µg/mL; MIC (E. coli BAJ9003 IMP MUT): 0.12 µg/mL; MIC [4]: 1 µg/mL; MIC [5]: 4 µg/mL; MIC [7]: 0.5 µg/mL; MIC (S. aureus IVES 2943): 8 µg/mL; MIC (S. aureus SMITH (MP)): 0.5 µg/mL; activity against E. coli tetA, E. coli tetC and E. coli tetD [10]: good activity; in vitro activity against tetracycline resistant strains containing tetM and tetB resistance determinants ([10]; S. aureus UBMS 88-5, 90-1, 90-2, E. coli UBMS 89-1, 90-4, 88-1, TN10C tetB): excellent; activity against recently isolated bacteria from clinical sources compared with minocycline ([10]; clinical isolates): superior to that of minocycline; activity against susceptible strains compared with minocycline ([10]; susceptible strains): equallyas effective as minocycline |
| [4S-(4alpha,12aalpha)]-9-[(Bromoacetyl)amino]-4,7-bis(dimethylamino)-1,4,4a,5,5a,6, 11,12a-octahydro-3,10,12,12a-tetrahydroxy-1, 11-dioxo-2-naphthacenecarboxamide dihydrochloride |  | 16 µg/mL | > 32 µg/mL | > 32 µg/mL | > 32 µg/mL | 4 µg/mL | 32 µg/mL | 32 µg/mL | 16 µg/mL | 8 µg/mL | 16 µg/mL | 32 µg/mL | > 32 µg/mL | > 32 µg/mL | 0.12 µg/mL |  | 1 µg/mL | 0.5 µg/mL | 4 µg/mL | 0.5 µg/mL | MIC [4]: 1 µg/mL; MIC (Enterococcus 12201): 1 µg/mL; MIC (E. faecalis ATCC 29212): 0.5 µg/mL |
| [7S-(7alpha,10aalpha)]-N-[9-(Aminocarbonyl)-4,7-bis(dimethylamino)-5,5a,6,6a,7,10,10a,12-octahydro-1,8,10a,11-tetrahydroxy-10,12-dioxo-2-naphthacenyl]-4-thiomorpholineacetamide dihydrochloride [F] | > 32 µg/mL | > 32 µg/mL | > 32 µg/mL | > 32 µg/mL | > 32 µg/mL | > 32 µg/mL | > 32 µg/mL | > 32 µg/mL | > 32 µg/mL | > 32 µg/mL | 32 µg/mL | 16 µg/mL | > 32 µg/mL | > 32 µg/mL |  | 1 µg/mL | 1 µg/mL | 1 µg/mL | 4 µg/mL | 1 µg/mL | MIC (E. coli UBMS 90-4 Tet M): > 32 µg/mL; MIC [5]: 4 µg/mL; MIC [7]: 1 µg/mL; MIC (S. aureus IVES 2943): 4 µg/mL; MIC (S. aureus ROSE (MP)): 8 µg/mL; MIC [8]: 4 µg/mL; MIC (Enterococcus 12201): 1 µg/mL; MIC (E. faecalis ATCC 29212): 0.25 µg/mL |
